{"source": "patent US9492460B2", "about": "“Carbazole compounds useful as bromodomain inhibitors” (Bristol-Myers Squibb Company, priority 2013, dated 2016)"}
{"target": "T1, bromodomain BRD4 (44-168), BRD4 (333-460), and BRD4 (1-477 or 44-460) (Homo sapiens, UniProt O60885)", "T1 construct": "BRD4(44-168), BRD4(333-460), BRD4(44-460), BRD4(1-477), O60885-1; fused on or other part: N-terminal BirA biotinylation motif, biotinylated; The TVMV-cleavable His6 tag is removed, except in some BRD4(44-460) runs detected with anti-His terbium cryptate", "assay": "Time Resolved Fluorescence Resonance Energy Transfer (TR-FRET) binding assay", "conditions": "one of the FRET assays described", "units": {"IC50": "nM"}}
{"smiles": "Cc1noc(C)c1-c1cc(C(=O)N(C)C)c2c3cc(C(=O)N4C[C@@H](C)O[C@@H](C)C4)ccc3n(Cc3ccccc3)c2c1", "note": "[Example 118, 9-benzyl-2-(3,5-dimethylisoxazol-4-yl)-6-(cis-2,6-dimethylmorpholine-4-carbonyl)-N,N-dimethyl-9H-carbazole-4-carboxamide]", "IC50": "< 500"}
{"smiles": "CNC(=O)c1cc(-c2c(C)noc2C)cc2[nH]c3ccc(C(=O)N4CC(F)(F)C4)cc3c12", "note": "[Example 99, 6-((3,3-difluoro-1-azetidinyl)carbonyl)-2-(3,5-dimethyl-4-isoxazolyl)-N-methyl-9H-carbazole-4-carboxamide]", "IC50": "< 500"}
{"smiles": "COC1CN(C(=O)c2ccc3c(c2)c2c(C(N)=O)cc(-c4c(C)noc4C)cc2n3Cc2ccccc2)C1", "note": "[Example 52]", "IC50": "< 50"}
{"smiles": "Cc1noc(C)c1-c1cc(C(N)=O)c2c3cc(N4CCCOC4=O)ccc3n(Cc3cc(F)ccc3F)c2c1", "note": "[Example 159, 9-(2,5-difluorobenzyl)-2-(3,5-dimethyl-4-isoxazolyl)-6-(2-oxo-1,3-oxazinan-3-yl)-9H-carbazole-4-carboxamide]", "IC50": "< 50"}
{"smiles": "Cc1noc(C)c1-c1ccc2c3cc(C(=O)N4CC(C)OC(C)C4)ccc3n(CCF)c2c1", "note": "(stereo not drawn) [Example 6]", "IC50": "< 500"}
{"smiles": "COC1CCN(C(=O)c2ccc3c(c2)c2c(C(N)=O)cc(-c4c(C)noc4C)cc2n3Cc2ccccc2)CC1", "note": "[Example 70]", "IC50": "< 50"}
{"smiles": "Cc1noc(C)c1-c1cc(C(N)=O)c2c3cc(C(=O)N4CCC(CO)CC4)ccc3n(Cc3ccccc3)c2c1", "note": "[Example 68]", "IC50": "< 50"}
{"smiles": "Cc1noc(C)c1-c1cc(C(N)=O)c2c3cc(NC(=O)C4CCCC4)ccc3n(Cc3ccccc3)c2c1", "note": "[Example 149, 9-benzyl-6-((cyclopentylcarbonyl)amino)-2-(3,5-dimethyl-4-isoxazolyl)-9H-carbazole-4-carboxamide]", "IC50": "< 50"}
{"smiles": "Cc1noc(C)c1-c1cc(C#N)c2c3ccc(C(=O)O)cc3n(C(c3ccccc3)c3ccccc3)c2c1", "note": "[Example 193, 5-Cyano-7-(3,5-dimethyl-4-isoxazolyl)-9-(diphenylmethyl)-9H-carbazole-2-carboxylic acid]", "IC50": "< 50"}
{"smiles": "CNC(=O)c1cc(-c2c(C)noc2C)cc2[nH]c3ccc(N4CCCOC4=O)cc3c12", "note": "[Example 168, 2-(3,5-dimethyl-4-isoxazolyl)-N-methyl-6-(2-oxo-1,3-oxazinan-3-yl)-9H-carbazole-4-carboxamide]", "IC50": "< 500"}
{"smiles": "CCNC(=O)c1cc(-c2c(C)noc2C)cc2c1c1cc(N3CCCOC3=O)ccc1n2Cc1ccccc1", "note": "[Example 165, 9-benzyl-2-(3,5-dimethyl-4-isoxazolyl)-N-ethyl-6-(2-oxo-1,3-oxazinan-3-yl)-9H-carbazole-4-carboxamide]", "IC50": "< 500"}
{"smiles": "Cc1noc(C)c1-c1cc(C(=O)N(C)C)c2c3cc(C(=O)N4CC(F)(F)C4)ccc3n(C(C)c3ccccc3)c2c1", "note": "(stereo not drawn) [Example 120, 6-((3,3-difluoro-1-azetidinyl)carbonyl)-2-(3,5-dimethyl-4-isoxazolyl)-N,N-dimethyl-9-(1-phenylethyl)-9H-carbazole-4-carboxamide]", "IC50": "< 500"}
{"smiles": "COc1ccccc1Cn1c2ccc(C(=O)N3CC(C)OC(C)C3)cc2c2c(C(N)=O)cc(-c3c(C)noc3C)cc21", "note": "(stereo not drawn) [Example 40]", "IC50": "< 50"}
{"smiles": "Cc1noc(C)c1-c1ccc2c3cc(C(=O)N4CC(C)OC(C)C4)ccc3n(CC3CC3)c2c1", "note": "(stereo not drawn) [Example 5]", "IC50": "< 500"}
{"smiles": "Cc1noc(C)c1-c1cc(C(N)=O)c2c3cc(C(=O)N4CC(F)C4)ccc3n(CC3CCC3)c2c1", "note": "[Example 90]", "IC50": "< 50"}
{"smiles": "Cc1noc(C)c1-c1cc(C(N)=O)c2c3cc(C(=O)N4CC(F)(F)C4)ccc3n(Cc3ccc(Cl)cc3)c2c1", "note": "[Example 95, 9-(4-chlorobenzyl)-6-((3,3-difluoro-1-azetidinyl)carbonyl)-2-(3,5-dimethyl-4-isoxazolyl)-9H-carbazole-4-carboxamide]", "IC50": "< 50"}
{"smiles": "Cc1noc(C)c1-c1cc(C(N)=O)c2c3cc(C(=O)N4CCC(C)CC4)ccc3n(Cc3ccccc3)c2c1", "note": "[Example 74]", "IC50": "< 50"}
{"smiles": "Cc1noc(C)c1-c1cc(C(N)=O)c2c3cc(C(=O)N4CCCC(C)(C)C4)ccc3n(Cc3ccccc3)c2c1", "note": "[Example 72]", "IC50": "< 50"}
{"smiles": "Cc1noc(C)c1-c1cc(C(N)=O)c2c3cc(C(=O)N4CC(C)OC(C)C4)ccc3n(Cc3cccc(C#N)c3)c2c1", "note": "(stereo not drawn) [Example 44]", "IC50": "< 50"}
{"smiles": "Cc1noc(C)c1-c1cc(C(N)=O)c2c3cc(C(=O)N4CC(F)C4)ccc3n(CC3CC3)c2c1", "note": "[Example 92]", "IC50": "< 50"}
{"smiles": "Cc1noc(C)c1-c1ccc2c3cc(C(=O)N4CC(C)OC(C)C4)ccc3n(Cc3ccccc3F)c2c1", "note": "(stereo not drawn) [Example 16]", "IC50": "< 7500"}
{"smiles": "Cc1noc(C)c1-c1cc(C(N)=O)c2c3cc(C(=O)N4CCOC(C)C4)ccc3n(Cc3ccccc3)c2c1", "note": "(stereo not drawn) [Example 55]", "IC50": "< 50"}
{"smiles": "COc1ccccc1Cn1c2ccc(C(=O)N3CC(C)OC(C)C3)cc2c2ccc(-c3c(C)noc3C)cc21", "note": "(stereo not drawn) [Example 15]", "IC50": "< 500"}
{"smiles": "Cc1noc(C)c1-c1cc(C(N)=O)c2c3cc(C(=O)N4CCC(F)(F)C4)ccc3n(Cc3ccccc3)c2c1", "note": "[Example 61]", "IC50": "< 50"}
{"smiles": "Cc1noc(C)c1-c1cc(C(N)=O)c2c3cc(C(=O)N4CCC(O)CC4)ccc3n(Cc3ccccc3)c2c1", "note": "[Example 67]", "IC50": "< 50"}
{"smiles": "Cc1nnn(C)c1-c1cc(C(N)=O)c2c3ccc(C(C)(C)O)cc3n(C(c3ccccc3)C3CCOCC3)c2c1", "note": "(single isomer, unassigned) [Example 232, 2-(1,4-Dimethyl-1H-1,2,3-triazol-5-yl)-7-(2-hydroxypropan-2-yl)-9-(phenyl(tetrahydro-2H-pyran-4-yl)methyl)-9H-carbazole-4-carboxamide]", "IC50": "< 50"}
{"smiles": "Cc1noc(C)c1-c1cc(C(N)=O)c2c3cc(C(=O)N4C[C@@H](C)O[C@@H](C)C4)ccc3n(S(=O)(=O)c3ccccc3)c2c1", "note": "[Example 45, 2-(3,5-dimethylisoxazol-4-yl)-6-(cis-2,6-dimethylmorpholine-4-carbonyl)-9-(phenylsulfonyl)-9H-carbazole-4-carboxamide]", "IC50": "< 7500"}
{"smiles": "Cc1noc(C)c1-c1cc(C(=O)NCC(C)C)c2c3cc(C(=O)N4CC(F)C4)ccc3n(Cc3ccc(F)cc3)c2c1", "note": "[Example 128, 2-(3,5-dimethyl-4-isoxazolyl)-6-((3-fluoro-1-azetidinyl)carbonyl)-9-(4-fluorobenzyl)-N-isobutyl-9H-carbazole-4-carboxamide]", "IC50": "< 500"}
{"smiles": "Cc1noc(C)c1-c1cc(C(N)=O)c2c3cc(C(=O)N4CCC(C)(C)C4)ccc3n(Cc3ccccc3)c2c1", "note": "[Example 58]", "IC50": "< 50"}
{"smiles": "Cc1noc(C)c1-c1cc(C(N)=O)c2c3cc(C(=O)N4CC(F)(F)C4)ccc3n(C(C)c3ccccc3)c2c1", "note": "(single isomer, unassigned) [Example 97, 6-((3,3-difluoro-1-azetidinyl)carbonyl)-2-(3,5-dimethyl-4-isoxazolyl)-9-(1-phenylethyl)-9H-carbazole-4-carboxamide]", "IC50": "< 50"}
{"smiles": "Cc1ccc(Cn2c3ccc(C(=O)N4CC(C)OC(C)C4)cc3c3ccc(-c4c(C)noc4C)cc32)cc1", "note": "(stereo not drawn) [Example 21]", "IC50": "< 500"}
{"smiles": "Cc1csc(Cn2c3ccc(C(=O)N4CC(C)OC(C)C4)cc3c3c(C(N)=O)cc(-c4c(C)noc4C)cc32)n1", "note": "(stereo not drawn) [Example 28]", "IC50": "< 50"}
{"smiles": "Cc1noc(C)c1-c1cc(C(N)=O)c2c3cc(C(=O)N4CCOCC4(C)C)ccc3n(Cc3ccccc3)c2c1", "note": "[Example 49]", "IC50": "< 7500"}
{"smiles": "COC(C)(C)c1ccc2c3c(C(N)=O)cc(-c4c(C)noc4C)cc3n([C@H](c3ccccc3)C3CCOCC3)c2c1", "note": "[Example 228, 2-(Dimethyl-1,2-oxazol-4-yl)-7-(2-methoxypropan-2-yl)-9-[(S)-oxan-4-yl(phenyl)methyl]-9H-carbazole-4-carboxamide]", "IC50": "< 50"}
{"smiles": "Cc1noc(C)c1-c1cc(C(N)=O)c2c3ccc(C(=O)N(C)C)cc3n(C(c3ccccc3)c3ccccc3)c2c1", "note": "[Example 195, 7-(3,5-Dimethyl-4-isoxazolyl)-9-(diphenylmethyl)-N˜2˜,N˜2˜-dimethyl-9H-carbazole-2,5-dicarboxamide]", "IC50": "< 50"}
{"smiles": "Cc1noc(C)c1-c1cc(C(N)=O)c2c3cc(NC(=O)C4CCOCC4)ccc3n(Cc3ccccc3)c2c1", "note": "[Example 145, 9-benzyl-2-(3,5-dimethyl-4-isoxazolyl)-6-((tetrahydro-2H-pyran-4-ylcarbonyl)amino)-9H-carbazole-4-carboxamide]", "IC50": "< 50"}
{"smiles": "CCCn1c2ccc(C(=O)N3CC(C)OC(C)C3)cc2c2ccc(-c3c(C)noc3C)cc21", "note": "(stereo not drawn) [Example 3]", "IC50": "< 500"}
{"smiles": "CNC(=O)c1cc(-c2c(C)noc2C)cc2c1c1cc(C(=O)N3CC(F)C3)ccc1n2Cc1cccc(F)c1F", "note": "[Example 107]", "IC50": "< 50"}
{"smiles": "CNC(=O)c1cc(-c2c(C)noc2C)cc2c1c1cc(C(=O)N3CC(F)C3)ccc1n2CC1CCC1", "note": "[Example 114]", "IC50": "< 50"}
